# Data: patent publication US20020192711A1, “Methods for identifying ligands of G-Protein-Coupled receptors” (priority 2001, published 2002)
# “Also recorded” adds a separate entry of the source.
# T1: CCR5 (Homo sapiens, UniProt P51681, L55Q)
# T1 construct: made in house; host or cells: insect cells (Sf9 / High Five), baculovirus
# T1 sequence (P51681 1-352 L55Q): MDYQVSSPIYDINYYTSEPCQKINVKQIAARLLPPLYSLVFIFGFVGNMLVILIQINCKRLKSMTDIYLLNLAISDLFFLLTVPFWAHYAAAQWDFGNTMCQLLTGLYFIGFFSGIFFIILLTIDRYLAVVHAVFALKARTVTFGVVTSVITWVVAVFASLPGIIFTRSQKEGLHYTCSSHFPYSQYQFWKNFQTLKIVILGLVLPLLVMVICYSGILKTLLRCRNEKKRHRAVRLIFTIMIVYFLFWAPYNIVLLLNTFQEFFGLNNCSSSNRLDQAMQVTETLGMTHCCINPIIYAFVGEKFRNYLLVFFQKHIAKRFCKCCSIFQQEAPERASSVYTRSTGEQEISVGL
# T2: C5a receptor (Homo sapiens, UniProt P21730)
# T2 sequence (P21730 1-350): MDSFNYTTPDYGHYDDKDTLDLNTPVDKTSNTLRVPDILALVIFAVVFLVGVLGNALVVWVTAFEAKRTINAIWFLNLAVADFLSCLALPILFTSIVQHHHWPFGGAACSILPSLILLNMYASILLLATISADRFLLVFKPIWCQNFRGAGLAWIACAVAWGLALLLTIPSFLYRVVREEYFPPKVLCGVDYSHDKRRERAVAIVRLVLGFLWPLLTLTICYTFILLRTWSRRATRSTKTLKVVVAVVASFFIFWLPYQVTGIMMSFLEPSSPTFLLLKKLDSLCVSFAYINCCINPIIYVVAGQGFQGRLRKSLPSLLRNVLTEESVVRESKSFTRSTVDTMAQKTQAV
# B1: MDC: macrophage-derived chemokine, a CCR4 ligand (protein, UniProt O00626 25-93, looked up)
# C-C motif chemokine 22: GPYGANMEDSVCCRDYVRYRLPLRVVKHFYWTSDSCPRPGVVLLTFRDKEICADPRVPWVKMILNKLSQ
# B2: MIP1-β: natural ligand for CCR5, used as radioligand (protein, UniProt P13236 24-92, looked up)
# C-C motif chemokine 4: APMGSDPPTACCFSYTARKLPRNFVVDYYETSSLCSQPAVVFQTKRSKQVCADPSESWVQEYVYDLELN
# modifications: also: radiolabel
# B3: C5a: ligand of the C5a receptor (protein, UniProt P01031 678-751, looked up)
# C5a anaphylatoxin: TLQKKIEEIAAKYKHSVVKKCCYDGACVNNDETCEQRAARISLGPRCIKAFTECCVVASQLRANISHKDMQLGR
# modifications: C5a anaphylatoxin
# notes: ligand of the C5a receptor
# How the values were obtained:
# [1] = target: β1-adrenergic receptor (Homo sapiens, UniProt P08588); test: Binding-displacement at β1-adrenergic receptor (FIG. 2D); conditions: membranes or solubilized receptor; 10 μM unlabeled ligand
# Chain of β1-adrenergic receptor (P08588 whole entry, species assumed): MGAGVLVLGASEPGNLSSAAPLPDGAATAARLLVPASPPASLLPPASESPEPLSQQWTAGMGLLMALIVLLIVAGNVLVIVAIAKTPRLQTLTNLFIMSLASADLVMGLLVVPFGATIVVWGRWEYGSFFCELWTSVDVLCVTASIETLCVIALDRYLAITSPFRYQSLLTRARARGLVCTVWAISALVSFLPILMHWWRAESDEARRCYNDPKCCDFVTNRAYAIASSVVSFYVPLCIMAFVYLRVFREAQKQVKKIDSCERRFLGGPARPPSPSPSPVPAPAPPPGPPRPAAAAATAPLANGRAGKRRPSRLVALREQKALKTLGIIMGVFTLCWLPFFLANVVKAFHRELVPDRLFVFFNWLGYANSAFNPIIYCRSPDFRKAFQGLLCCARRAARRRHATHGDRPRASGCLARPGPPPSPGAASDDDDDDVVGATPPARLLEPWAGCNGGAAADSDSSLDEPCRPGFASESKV
# Method: (§1) The β1-adrenergic receptor, either in the membranes or solubilized (according to the invention), was incubated with the radiolabeled ligand, iodocyanopindolol, at a set concentration, in the presence or absence of 10 μM unlabeled ligand (pindolol). In the absence of unlabeled ligand, maximal binding of the radiolabeled ligand is observed.
# [2] = target: T1, CCR5; test: Binding-displacement of radiolabeled MIP-1β at CCR5 (FIG. 2A); conditions: CCR5 in membranes or solubilized and immobilized; various concentrations
# Method: The CCR5 receptor, either in membranes or solubilized and immobilized onto the column, was incubated with the radiolabeled ligand, MIP-1β, at a set concentration, in the presence of various concentrations of the unlabeled ligand, MIP-1α. […] This displacement of the radioligand with increasing concentrations of unlabeled ligand gave a standard sigmoidal shaped curve. The two curves, one for the membrane binding-displacement and one for the binding-displacement for the immobilized receptor were substantially similar (within the experimental error), indicating similar functional conformation of the receptor in the membranes and immobilized receptor.
# [3] = tested on: CCR5; test: Ligand mixture incubated with immobilized CCR5, western blot detection; format: binding; conditions: mixture of RANTES, MDC, gonadotropin releasing hormone
# Method: CCR5 was obtained and prepared with a GST tag bound to glutathione column according to the steps provided in Example 1. Thereafter, a ligand mixture (RANTES, MDC, gonadotropin releasing hormone) was incubated with immobilized CCR5 to determine which ligands bound to the receptor. After washing to remove non-specific binding, the SDS-PAGE sample buffer was added to each, boiled for 1 minute, and loaded onto an SDS-PAGE gel. In order to analyze the beads, SDS-PAGE was performed on the various samples and transferred to nitrocellulose by western blotting to determine which ligands were bound. Duplicate samples were run, one group for detection with anti-RANTES antibody and one group for detection with anti-MDC antibody.
# The molecular weights (in kDa) as determined by the standards are listed on the left side of the blot. The individual lanes are numbered across the top of the blot. Lanes 1-4 were developed with anti-RANTES antibody. […] The band at approximately 8 kDa is RANTES. […] Lane 3 is a RANTES standard (positive control). Lane 4 is the MDC (macrophage-derived chemokine) standard (negative control—[…]). Lanes 5-8 were developed with anti-MDC (macrophage-derived chemokine, a CCR4 ligand ) antibody. […] Lane 6 is the same as lane 2 but developed with anti-MDC antibody. Lane 7 is RANTES standard and Lane 8 is MDC standard. […]
# [4] = tested on: CCR5; test: Affinity de-orphaning: in vitro translated cDNA pool incubated with immobilized CCR5-GST, SDS-PAGE/phosphorimage; format: binding; conditions: human lung cDNA library spiked with RANTES, [35S]-Met, CCR5 on sepharose beads
# Method: CCR5 was obtained and prepared with a GST tag according to the steps provided in Example 1. CCR5-GST was immobilized on a glutathione column using the GST tag, and incubated with ligands obtained using in vitro translation of small pools of approximately 100 clones from a cDNA library. […] Thereafter, a human lung cDNA library was spiked with RANTES and was transcribed and translated in vitro using the TNT Quick Coupled Wheat Germ kit, available from Promega Corporation (Madison, Wis.) with [^35S]-Met. RANTES cDNA alone was used as a positive control for translation and binding experiments.
# A human lung cDNA library was chosen because RANTES was originally isolated from a human lung library. Also, libraries derived from tissues having an abundant number of immune cells, such as spleen and thymus tissues also are possible sources. The cDNA was in a bacterial host (E. coli). In general, the clones were transcribed and translated, and a mixture of their respective proteins was produced in a concentrated sample. This sample then was then probed with a receptor (i.e., CCR5) to determine if there are any proteins in the pool that can bind to the receptor of interest. The concentration was approximately 5×10^9 colony forming units per ml. Thus, dilution was necessary to dilute the number of clones to approximately 100 per pool. […]
# [5] = tested on: CCR5; test: Affinity purification of THP-1 culture supernatant HPLC fractions on immobilized CCR5, silver stain/mass spectrometry; format: binding; conditions: LPS-induced THP-1 supernatant, RP-HPLC fractions
# Method: Expressed CCR5-GST was immobilized in the same fashion as described above using a glutathione-sepharose resin. THP-1 cells, a monocytic cell line, were induced with lipopolysaccharide (LPS) from E. coli extracts (Sigma, St. Louis, Mo.), and grown for 48 hours. THP-1 cells were selected for the purpose of this experiment because THP-1 cells are a general monocytic cell line that expresses CCR5 (the receptor of interest). Also, THP-1 cells, and other monocytes are involved in the inflammatory process and migrate to sites of inflammation in response to a chemokine gradient. These cells can also be induced to produce more chemokines by using reagents such as lipopolysaccharide (LPS) from E. coli.
# The THP-1 cells were harvested by centrifugation. […] The quantity of RANTES quantitatively determined to be approximately 1 μg in approximately 2-3 L. These crude fractions or pools were purified by CCR5 affinity columns and by incubating with the immobilized CCR5. […]
# The CCR5 with column fractions were compared to CCR5-only controls because there are proteins that non-specifically bind to the column, and because the CCR5 receptor and any contaminants present in the preparation can be seen as protein bands. […] Therefore, bands that were detected only in the fraction samples were submitted for sequencing and identified by mass spectrometry. […]
# [6] = target: CCR5; conditions: CCR5 membrane preparations; value obtained by Receptor Biology, own preparations comparable; read-out: Kd for MIP1-β binding; cited from earlier work
# [7] = target: T2, C5a receptor; test: Binding-displacement at C5a receptor (FIG. 2E); conditions: membranes or solubilized receptor; 10 μM unlabeled ligand
# Method: as §1, with “[…],” for “β1-adrenergic receptor,”, “C5a,” for “iodocyanopindolol,”, “(C5a).” for “(pindolol).”
molecule,measurement,setting,value
CC(C)NCC(O)COc1cccc2[nH]ccc12 (stereo not drawn) [pindolol],displacement of radiolabeled iodocyanopindolol by unlabeled ligand,[1],displacement of the radiolabeled ligand down to background levels
"MIP-1α: natural ligand for CCR5, unlabeled competing ligand",displacement of radiolabeled MIP-1β by unlabeled ligand,[2],displaced more of the radiolabeled ligand
RANTES: a natural ligand for CCR5,binding to immobilized CCR5 from ligand mixture,[3],specifically binds to the CCR5 receptor; also recorded: bound specifically to CCR5
same,binding of translated ligand to immobilized CCR5,[4],binding was observed
same,"ligand bound to immobilized CCR5, identified by mass spectrometry",[5],ligand for CCR5
"statherin: second binder identified from THP-1 supernatant on CCR5 (DSSEEKFLRRIGRFGYGYGPYQPVPEQPLYPQPYQPQYQQYTF; UniProt P02808 20-62, looked up)","ligand bound to immobilized CCR5, identified by mass spectrometry",[5],binder
B1,binding to immobilized CCR5 from ligand mixture,[3],does not bind to CCR5
B2,Kd,[6],< 1 nM
B3,displacement of radiolabeled C5a by unlabeled ligand,[7],displacement of the radiolabeled ligand down to background levels
